The data set can be described thus: In vivo pharmacokinetics, single iv administration to male Wistar rats (blood concentration). Particulars: 5 mg/kg iv. More on the design: species or system rat. How it is done:
In order to estimate how these in vitro ADME parameters correlate to an in vivo setting, compound 39 was selected for a single intravenous (iv) administration to three male Wistar rats at a dose of 5 mg/kg. Blood samples were obtained at various time points. (0.083, 0.25, 0.5, 1, 2, 4, and 24 h) The concentration of 39 was determined using UPLC analysis coupled with tandem quadrupole mass spectrometry. […] Only in 1 sample a concentration of […] was determined 5 minutes after dosing.
Male Wistar rats (BW˜250 g; Janvier France) were housed individually and randomly allocated to groups of 3 animals each based on body weight. The animals were fasted overnight until 4 hours after dosing. Drinking water remained available ad libitum.
The test compound were kept at 4° C. until formulation. The compound was formulated in PEG200 at 10 mg/ml. The test formulation was prepared by LMPH and stored at room temperature.
Blood was collected from sublingual vein using capillary tubes under isoflurane anaesthesia. The blood was dropped (15 μL) on Whatman® FTA® DMPK B cards, dried at room temperature for at least 2 hours and further processed for analysis. A 6 mm disk was punched from the blood spot center, extracted in 75:25 ACN:H2O containing tolbutamide as internal standard (IS). […] The optimal DBS protocol (FTA DMPK-A or B card, extraction solvent) was determined in a preliminary experiment.

Molecules are shown by their SMILES. Bounds are passed on as bounds.

As for `Cl.O=S(=O)(NCCN1CCNCC1)c1ccc(NC2CCCCC2)c(NCc2ccccc2)c1` [Compound 39, 3-(benzylamino)-4-(cyclohexylamino)-N-(2-(piperazin-1-yl)ethyl)benzenesulfonamide Hydrochloride], for the setting “0.083-24 h”, the “Plasma concentration (below detection limit in nearly all samples)” value is on record as less than 53.1 ng/mL. Also, the Plasma concentration in 1 sample (5 minutes after dosing) amounted to 19.6 ng/mL.
